Measured values: US12208227B2, “Precision bio-chemotronic system” (THE REGENTS OF THE UNIVERSITY OF MICHIGAN, priority 2017, dated 2025)
In brackets after ≈: the same amount, converted by molar mass.

Legend:
[1] = Dissolution of printed films versus original loose powders; format: physicochemical
Description: (§2) Drug dissolution was monitored by in-situ UV-VIS Ocean Optics USB+2000 spectrometer with T300-UV-VIS transmission dip probe, with a 10 mm optical path.
(§3) For dissolution from film, the glass substrate with printed film was attached to rotating rod with substrate holder. In case of compressed powder pellet, 1.57 mm diameter pellet was compressed at 50±2 psi for approximately 10 seconds into a holder having same size as disk substrate holder. […] In all cases the same vessel and solution volume of 10 ml was used. Testing temperature was room temperature−20±1° C. Sink conditions were defined as C<5Cs.
As-received API powders having the same weight as the films were introduced into 10 ml solutions without any prior treatment, and stirred using a rotation rod with the same shape and diameter as the one used for film dissolution.

[2] = Intrinsic dissolution rate, rotating disk dissolution apparatus; format: physicochemical; details: films comparable to compressed pellets, 100 rpm, 10 ml, 20±1° C.
Description: as §2
Dissolution Rate Measurement
as §3
To measure dissolution kinetics, a rotating disk dissolution apparatus (see FIG. 30 for details) was used with rotational speed of 100 rpm. Concentration was monitored using a UV-VIS spectrometer equipped with a dip probe. The compounds were tested both in powder form (compressed into pellets for rotating disk dissolution) and in film form. […]
[formula] where m is the dissolved solute mass, and (dm/dt)max is the maximum slope in the dissolution curve that plots the amount of dissolved material versus time, typically evaluated at the start of dissolution process, where the concentration driving force is highest. […]

physchem = details: 20 °C, pH 1.2, simulated gastric fluid, thermodynamic from solid
Description: Solubility tests were performed at ambient temperature (20±1° C.). Solutions with excess concentration (at least 100 μg/ml of solid) were shaken at approximately 1,000 rpm for 48 hours, followed by solution filtration with 0.4 μm filter after 24 hrs. Filtered solutions concentrations were then measured using UV-VIS spectrometry, calibrated with known solutions concentrations. Five different concentrations for calibration were used in each test.
Solution volume remained constant in all experiments, 10 ml, and temperature was 20±1° C.

[3] = tested on: MCF7 cells (breast carcinoma); assay: Cancer cell growth/viability, live cell counts by trypan blue exclusion; format: cell-based
Description: (§1) The cells were plated onto 12-well tissue culture dishes, and allowed to adhere and grow for 24 hours in 2.5 ml of 10% fetal bovine serum-supplemented growth medium. […] Slides were removed following this initial period, and live cell counts were determined using trypan blue exclusion using a hemocytometer at 1, 4, 8, 12, 24 and 48 hours following film treatment. At least 3 samples were tested at each time point.

[4] = tested on: OVCAR3 cells (ovarian carcinoma); assay: as above; format: cell-based
Description: as §1

[5] = film form, nominal 5 μM (4.5 μg per film)
[6] = powder form in growth medium, nominal 5 μM

Cn1c(=O)c2c(ncn2C)n(C)c1=O [Caffeine]
dissolution in the film form (qualitative) ([1]; film form): instantaneous dissolution

CC(C)Cc1ccc(C(C)C(=O)O)cc1 (stereo not drawn) [ibuprofen]
intrinsic dissolution rate (IDR) ([2]; aqueous HCl buffer pH 1.2): 1·10^−3±3·10^−4 μg sec^−1 mm^−2
enhancement of initial dissolution rate, film-form versus loose powder ([1]; aqueous HCl buffer pH 1.2, 70 μg weight, 10 ml): thirty-fold
solubility at 48 h (physchem): 22.5 ± 0.5 µg/mL (≈ 109 µM)

CC/C(=C(\c1ccccc1)c1ccc(OCCN(C)C)cc1)c1ccccc1 [tamoxifen]
intrinsic dissolution rate (IDR) ([2]; aqueous acetate buffer pH 4.9): 6.10^−4±1·10^−4 μg sec^−1 mm^−2
cancer cells' viability after 48 hours [3, 5]: 58%
cancer cells' viability after 48 hours [3, 6]: 79%
cancer cells' viability after 48 hours [4, 5]: 44%
cancer cells' viability after 48 hours [4, 6]: 68%
